Tests used:
[1] = Metabolite profiling in rat bile, urine and feces (radio-HPLC, LC-HRMS); type: in vivo; details: in vivo, iv, 4 mg/kg
Protocol: Tissue homogenate samples at 24 hours were extracted as plasma samples. […] The pooled urine samples containing 10% MeOH were analyzed by liquid chromatography-high resolution mass spectrometry (LC-HRMS).
The pooled bile sample containing 10% MeOH was analyzed by LC-HRMS.
Feces samples obtained from BDC and intact rats were pooled separately across time intervals for each animal (5% w/v) and further pooled across animals for each group to generate a 0–68 hour pooled sample. Approximately 1–2 g of each pooled feces sample was extracted as the same protocol used for plasma samples. […] The reconstituted samples were analyzed by LC-HRMS.
The reconstituted samples were analyzed by LC-HRMS, with eluent fractions collected at 10-second intervals into 96-well plates containing solid scintillant. Radioactivity in each well was determined using TopCount analysis, and radiochemical profiles were generated based on radioactivity counts. Structural elucidation was performed based on mass spectral interpretation to identify metabolites.
For metabolite profiling and identification, LC-MS analysis used a Shimadzu/Nexera LC-30 AD liquid chromatographic system and a ThermoFisher Scientific Q Exactive with a positive/negative heated electrospray interface. The column was a Waters XSelect HSS T3 4.6 mm × 250 mm, 3.5 µm and maintained at 40 °C. The mobile phases were (A) 20 mM ammonium acetate in water and (B) acetonitrile. […] The flow was 1 mL/min and split 20% to mass analysis and 80% collected for radioactivity counting. Mass spectrometry data was acquired with full scans at a resolution of 70,000 for a m/z range of 300 to 1500, and MS/MS scans were acquired at a resolution of 17,500. The mass spectrometer was operated with a normalized collision energy of 30 (ESI+), S-Lens RF level of 60, source voltage of +3.5 kV, Capillary temperature of 320 °C, and Probe heater temperature of 300 °C.

[2] = Bioavailability after PO administration (peer review reply); type: in vivo; details: authors' reply in peer review file
[3] = molecular target: T1, CYP2C19 (Homo sapiens, UniProt P33261); assay: Reversible P450 inhibition in HLM; type: biochemical; details: substrate Mephenytoin
T1 construct: phosphate buffer (100 mM, pH 7.4) containing human liver microsomes (HLM); from tissue; host or cells: human liver microsomes
Protocol: (§1) The reversible P450 inhibition assay was conducted in triplicate on a BioCel 1200 System, V11 (Agilent, CA), as previously described by Kosaka, et al.[28] […] Individual P450 specific substrates included midazolam for CYP3A4/5, dextromethorphan for CYP2D6, S-(+)-mephenytoin for CYP2C19, S-(-)-warfarin for CYP2C9, paclitaxel for CYP2C8, and tacrine for CYP1A2. P450 activity was expressed as the peak area ratio of a P450-specific metabolite formed relative to its internal standard, and inhibition percentage was calculated from P450 activity of samples relative to the solvent control. Inhibition data were processed using Prism (GraphPad Software, San Diego, CA) to calculate IC50 values for each P450 enzyme.

[4] = molecular target: T2, CYP2D6 (Homo sapiens, UniProt P10635); assay: Reversible P450 inhibition in HLM; type: biochemical; details: human liver microsomes, pH 7.4, probe dextromethorphan, substrate Dextromethorphan
T2 construct: phosphate buffer (100 mM, pH 7.4) containing human liver microsomes (HLM); from tissue; host or cells: human liver microsomes
Protocol: as §1

[5] = molecular target: T3, CYP2C9 (Homo sapiens, UniProt P11712); assay: Reversible P450 inhibition in HLM; type: biochemical; details: human liver microsomes, pH 7.4, probe S-(-)-warfarin
T3 construct: phosphate buffer (100 mM, pH 7.4) containing human liver microsomes (HLM); from tissue; host or cells: human liver microsomes
Protocol: as §1

[6] = molecular target: T4, CYP2C8 (Homo sapiens, UniProt P10632); assay: Reversible P450 inhibition in HLM; type: biochemical; details: human liver microsomes, pH 7.4, probe paclitaxel, substrate Paclitaxel
T4 construct: phosphate buffer (100 mM, pH 7.4) containing human liver microsomes (HLM); from tissue; host or cells: human liver microsomes
T4 sequence (P10632 1-490): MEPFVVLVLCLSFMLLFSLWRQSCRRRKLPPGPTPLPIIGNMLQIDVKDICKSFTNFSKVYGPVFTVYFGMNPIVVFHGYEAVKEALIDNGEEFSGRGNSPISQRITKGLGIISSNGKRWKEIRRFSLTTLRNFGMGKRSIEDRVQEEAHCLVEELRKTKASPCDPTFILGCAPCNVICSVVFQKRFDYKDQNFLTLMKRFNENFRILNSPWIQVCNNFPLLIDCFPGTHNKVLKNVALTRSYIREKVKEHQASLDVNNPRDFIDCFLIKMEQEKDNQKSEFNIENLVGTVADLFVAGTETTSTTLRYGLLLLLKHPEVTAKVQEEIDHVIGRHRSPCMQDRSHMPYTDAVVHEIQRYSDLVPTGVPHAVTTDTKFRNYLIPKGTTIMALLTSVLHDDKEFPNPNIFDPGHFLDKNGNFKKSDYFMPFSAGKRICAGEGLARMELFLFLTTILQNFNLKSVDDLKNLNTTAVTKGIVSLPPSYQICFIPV
Protocol: as §1

[7] = molecular target: T5, CYP1A2 (Homo sapiens, UniProt P05177); assay: Reversible P450 inhibition in HLM; type: biochemical; details: human liver microsomes, pH 7.4, probe tacrine, substrate Tacrine
T5 construct: phosphate buffer (100 mM, pH 7.4) containing human liver microsomes (HLM); from tissue; host or cells: human liver microsomes
T5 sequence (P05177 1-516): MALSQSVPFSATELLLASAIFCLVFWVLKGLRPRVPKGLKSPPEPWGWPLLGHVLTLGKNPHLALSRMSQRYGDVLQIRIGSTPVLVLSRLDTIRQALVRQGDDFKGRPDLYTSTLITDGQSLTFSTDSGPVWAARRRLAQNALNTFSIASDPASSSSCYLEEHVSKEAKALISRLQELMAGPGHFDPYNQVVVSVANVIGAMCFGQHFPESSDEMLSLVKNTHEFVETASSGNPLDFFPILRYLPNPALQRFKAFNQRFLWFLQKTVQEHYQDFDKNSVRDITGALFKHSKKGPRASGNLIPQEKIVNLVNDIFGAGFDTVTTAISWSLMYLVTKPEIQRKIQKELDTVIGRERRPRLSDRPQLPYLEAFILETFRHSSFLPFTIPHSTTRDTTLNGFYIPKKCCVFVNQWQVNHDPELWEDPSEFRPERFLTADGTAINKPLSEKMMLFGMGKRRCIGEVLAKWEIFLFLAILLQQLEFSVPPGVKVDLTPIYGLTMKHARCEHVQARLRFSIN
Protocol: as §1

T1 sequence (P33261 whole entry): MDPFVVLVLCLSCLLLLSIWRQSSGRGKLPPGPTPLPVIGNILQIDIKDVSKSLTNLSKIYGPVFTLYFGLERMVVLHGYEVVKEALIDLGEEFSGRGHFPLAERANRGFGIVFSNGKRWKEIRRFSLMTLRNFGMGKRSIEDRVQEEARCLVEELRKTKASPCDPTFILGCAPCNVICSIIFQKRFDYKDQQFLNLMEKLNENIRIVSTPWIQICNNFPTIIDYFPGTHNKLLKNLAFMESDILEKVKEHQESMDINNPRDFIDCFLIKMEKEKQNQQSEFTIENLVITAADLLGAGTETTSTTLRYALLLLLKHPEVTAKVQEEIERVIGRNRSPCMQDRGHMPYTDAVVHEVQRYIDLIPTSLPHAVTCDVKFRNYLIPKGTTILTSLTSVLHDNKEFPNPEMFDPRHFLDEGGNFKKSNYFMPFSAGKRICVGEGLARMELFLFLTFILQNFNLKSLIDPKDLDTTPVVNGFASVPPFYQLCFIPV
T2 sequence (P10635 whole entry): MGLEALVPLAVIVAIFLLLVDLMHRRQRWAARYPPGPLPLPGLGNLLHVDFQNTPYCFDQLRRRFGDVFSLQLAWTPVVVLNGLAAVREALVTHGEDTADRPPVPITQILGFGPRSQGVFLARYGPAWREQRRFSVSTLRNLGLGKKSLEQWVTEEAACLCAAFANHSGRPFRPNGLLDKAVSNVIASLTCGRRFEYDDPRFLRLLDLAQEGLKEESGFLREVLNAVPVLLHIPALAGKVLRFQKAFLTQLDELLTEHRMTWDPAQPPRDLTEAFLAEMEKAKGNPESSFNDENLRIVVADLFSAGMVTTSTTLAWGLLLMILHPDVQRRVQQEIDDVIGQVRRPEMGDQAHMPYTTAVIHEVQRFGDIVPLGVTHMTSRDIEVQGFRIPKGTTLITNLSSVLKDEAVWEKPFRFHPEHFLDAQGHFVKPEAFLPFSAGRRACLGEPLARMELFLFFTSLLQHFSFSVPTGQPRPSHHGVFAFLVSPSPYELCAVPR
T3 sequence (P11712 whole entry): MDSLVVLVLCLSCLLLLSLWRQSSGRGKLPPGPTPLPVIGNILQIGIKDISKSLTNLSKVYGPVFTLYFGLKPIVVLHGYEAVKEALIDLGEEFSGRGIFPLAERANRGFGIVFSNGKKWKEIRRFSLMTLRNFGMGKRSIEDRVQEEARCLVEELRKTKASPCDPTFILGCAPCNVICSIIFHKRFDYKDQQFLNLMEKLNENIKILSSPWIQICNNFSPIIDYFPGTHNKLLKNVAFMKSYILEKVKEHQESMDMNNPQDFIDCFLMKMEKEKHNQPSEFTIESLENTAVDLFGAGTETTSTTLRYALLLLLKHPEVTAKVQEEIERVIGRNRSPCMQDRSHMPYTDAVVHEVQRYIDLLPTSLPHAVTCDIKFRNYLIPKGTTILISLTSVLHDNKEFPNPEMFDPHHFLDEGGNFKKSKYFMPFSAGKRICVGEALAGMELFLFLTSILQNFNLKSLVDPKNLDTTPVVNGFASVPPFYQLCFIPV

| SMILES | %Rad in bile [1] [%] | %rad in feces [1] [%] | %rad in urine [1] [%] | Bioavailability after PO administration [2] | IC50 ([3]; human, human liver microsomes, pH 7.4, probe S-(+)-mephenytoin) [µM] | IC50 [3] [µM] | IC50 [4] [µM] | IC50 [5] [µM] | IC50 [6] [µM] | IC50 [7] [µM] |
| --- | --- | --- | --- | --- | --- | --- | --- | --- | --- | --- |
| Cc1ncsc1-c1ccc(C(C)NC(=O)C2CC(O)CN2C(=O)C(c2cc(N3CCC(CN4CCC(OC5CC(Oc6cc(N7C8CCC7CN(c7cc(-[14c]9[14cH][14cH][14cH][14cH][14c]9O)nnc7N)C8)ccn6)C5)CC4)CC3)no2)C(C)C)cc1 (stereo not shown) [14C-A947] | 23.11 | 18.95 | 20.6 | – | – | – | – | – | – | – |
| Cc1ncsc1-c1ccc(C(C)NC(=O)C2CC(O)CN2C(=O)C(c2cc(N3CCC(CN4CCC(OC5CC(Oc6cc(N7C8CCC7CN(c7cc(-c9ccccc9O)nnc7N)C8)ccn6)C5)CC4)CC3)no2)C(C)C)cc1 (stereo not shown) [A947] | – | – | – | did not find bioavailability | 3 | ~3 | > 10 | > 10 | > 10 | > 10 |
